Entries after “also recorded” stand apart in the source; their conditions may differ.
Legend:
SPPL2b = biological target: T1, SPPL2b (Homo sapiens, UniProt Q8TCT7); test: FBA/SPPL2b co-transfected HEK 293T cell cleavage assay (Aβ ELISA, Western blot, IP/MS); format: cell-based
T1 construct: expressed in transfected cells; host or cells: HEK 293T
T1 sequence (Q8TCT7 26-592): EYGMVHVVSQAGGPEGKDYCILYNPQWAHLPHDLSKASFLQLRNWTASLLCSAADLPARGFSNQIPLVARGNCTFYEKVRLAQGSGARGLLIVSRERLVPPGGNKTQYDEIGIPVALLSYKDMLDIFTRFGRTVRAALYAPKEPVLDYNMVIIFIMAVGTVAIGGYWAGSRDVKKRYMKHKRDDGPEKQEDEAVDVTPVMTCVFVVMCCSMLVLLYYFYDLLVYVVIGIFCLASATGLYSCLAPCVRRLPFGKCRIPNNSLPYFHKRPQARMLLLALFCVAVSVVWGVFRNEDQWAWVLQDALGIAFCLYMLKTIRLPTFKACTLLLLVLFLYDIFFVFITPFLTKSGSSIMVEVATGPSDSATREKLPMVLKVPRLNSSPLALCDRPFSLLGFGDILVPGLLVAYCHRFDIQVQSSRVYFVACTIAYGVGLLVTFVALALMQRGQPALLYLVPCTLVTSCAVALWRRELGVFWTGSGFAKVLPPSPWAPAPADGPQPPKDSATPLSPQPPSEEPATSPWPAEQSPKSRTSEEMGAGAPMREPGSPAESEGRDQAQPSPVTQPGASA
From the text: (§1) Expression constructs in pcDNA6 for COOH-terminal FLAG (DYKDDDDK) and strep (WSHPQFEK) tagged SPPL2a, SPPL2b, hSPP and pSPP were generated as previously described. Untagged versions of all enzymes were also made and ligated into the pAG3 vector. Substrates (Fig 1) were designed as follows: FLAG-BRI2_1-81- Aβ1-25/K16A (FBA). The K16A mutation was incorporated to prevent potential α-secretase cleavage that would preclude ELISA based detection of the released COOH-terminal fragment. The substrate DNA was cloned into the expression vector pcDNA6. Constructs were confirmed by DNA sequencing. The overexpression of substrates was performed by transiently transfecting human embryonic kidney (HEK 293T) cells with or without SPP/SPPL vectors. Cells were grown in DMEM media supplemented with Hyclone 10% fetal bovine serum (GE, Logan, Utah, USA) and 1% penicillin/streptomycin (Life Technologies, Grand Island, NY, USA). Briefly, 2.7 μg DNA was applied to a 75% confluent 6 well plate (Corning, Tewksbury, MA, USA) using the polycation polyethylenimine (PEI) transfection method. Inhibitor testing experiments were conducted in 48 well plates with appropriately adjusted amounts of DNA and PEI and incubated 12–16 hours, after which the growth medium was replaced with fresh medium. DMSO (Sigma, St. Louis, MO, USA) and GSIs were added at the appropriate concentration. The GSIs, L685,458 and Compound W were purchased from Tocris (Tocris, Bristol, UK). (Z-LL)2 ketone, Compound E, DAPT, GSI II were purchased from Calbiochem (Merck Millipore, Billerica, MA, USA). LY-411,575 was synthesized by A. Fauq at the Mayo Clinic Chemical Core. Twenty-four hours later, the medium was collected for assay by ELISA and MS. A20 cells (TIB-208) (ATCC, Manassas, VA, USA) were cultured in RPMI-1640 medium (ATCC) supplied with 10% fetal bovine serum, 1% penicillin/streptomycin and 0.05 mM 2-mercaptoethanol (Life Technologies). At the density of 5x10^5 cells/ml, A20 cells were spun down at 1000 g for 2 min and resuspended in fresh medium supplied with DMSO or GSIs and incubated for 16 hr.
(§2) Sandwich ELISAs used for Aβ detection were performed as previously described. Briefly, Aβ and Aβ adducts with substrate TMD in conditioned media was captured with Ab5 antibody (human Aβ1–16 specific) and detected with horseradish peroxidase mAb 4G8 (Covance, Princeton, NJ, USA). Synthetic Aβ1–40 was used as standard. All ELISAs were developed with TMB substrate (KPL, Gaithersburg, Maryland, USA). Bis-Tris precast gels (Biorad, Hercules, CA, USA) were used for all SDS-PAGE. Monoclonal anti-FLAG M2 antibody (Sigma) and Aβ1–16 antibody 6E10 (Covance) were used for Western blotting. Antisera against SPPL2a, SPPL2b, hSPP and pSPP were generated as previously described and were used at dilution of 1:1000 for Western blotting. Anti-CD74 In-1 antibody (BD Bioscience, San Jose, CA, USA) was used for A20 cell lysate Western blotting at dilution of 1:1000.
(§3) Immunoprecipitation and mass spectrometry of xAβ1–25 in conditioned media were performed as previously described. In this study, 10 ml conditioned media were used for each experiment. ICDs were immunoprecipitated with anti-FLAG M2 magnetic beads. Cells from 10 cm dished treated with DMSO or 20 μM LY-411,575 were used for each test.

pSPP = pSPP (Plasmodium falciparum, UniProt Q8IKQ9); test: FBA/pSPP co-transfected HEK 293T cell cleavage assay (Aβ ELISA, Western blot, IP/MS); format: cell-based, human; settings: for inhibition of xAβ1-25/K16A secretion (in words): 25 μM, ELISA
pSPP, sequence (Q8IKQ9 entry or part of it): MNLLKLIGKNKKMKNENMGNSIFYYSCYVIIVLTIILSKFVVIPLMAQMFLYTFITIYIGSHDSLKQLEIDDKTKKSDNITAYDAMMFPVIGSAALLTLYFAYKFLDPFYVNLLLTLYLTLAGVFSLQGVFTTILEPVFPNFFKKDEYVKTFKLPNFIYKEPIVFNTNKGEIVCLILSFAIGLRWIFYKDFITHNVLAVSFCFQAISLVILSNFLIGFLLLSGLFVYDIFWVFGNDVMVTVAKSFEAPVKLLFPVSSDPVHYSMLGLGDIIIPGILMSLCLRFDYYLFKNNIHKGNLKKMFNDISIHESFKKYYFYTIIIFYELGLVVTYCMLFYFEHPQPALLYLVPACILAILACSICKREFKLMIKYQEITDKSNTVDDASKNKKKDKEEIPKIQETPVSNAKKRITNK
From the text: as §1, §2, §3

SPPL2a [1] = biological target: T2, SPPL2a (Homo sapiens, UniProt Q8TCT8); test: FBA/SPPL2a co-transfected HEK 293T cell cleavage assay (Aβ ELISA, Western blot); format: cell-based
T2 construct: expressed in transfected cells; host or cells: HEK 293T
T2 sequence (Q8TCT8 26-520): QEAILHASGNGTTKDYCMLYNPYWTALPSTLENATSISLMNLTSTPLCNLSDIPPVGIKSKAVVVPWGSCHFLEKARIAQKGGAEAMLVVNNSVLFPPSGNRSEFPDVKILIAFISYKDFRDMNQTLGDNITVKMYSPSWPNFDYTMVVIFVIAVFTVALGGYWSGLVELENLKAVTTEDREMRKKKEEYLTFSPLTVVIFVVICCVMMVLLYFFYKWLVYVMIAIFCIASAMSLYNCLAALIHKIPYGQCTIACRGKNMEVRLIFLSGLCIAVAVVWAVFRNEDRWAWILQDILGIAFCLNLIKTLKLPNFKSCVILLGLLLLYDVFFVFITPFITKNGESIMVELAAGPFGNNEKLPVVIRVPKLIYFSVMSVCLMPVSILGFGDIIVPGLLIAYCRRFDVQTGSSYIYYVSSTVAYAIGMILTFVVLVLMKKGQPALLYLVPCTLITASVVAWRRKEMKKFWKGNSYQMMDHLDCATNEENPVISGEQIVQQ
From the text: as §1, §2

hSPP = biological target: T3, hSPP (Homo sapiens, UniProt Q8TCT9); test: FBA/hSPP co-transfected HEK 293T cell cleavage assay (Aβ ELISA, Western blot, IP/MS); format: cell-based; settings: for IC50: HEK cells, 24 h, xAβ1-25/K16A by Aβ ELISA, mean ± standard error, read-out: IC50 on FBA/SPPL co-transfected cells
T3 construct: expressed in transfected cells; host or cells: HEK 293T
T3 sequence (Q8TCT9 1-377): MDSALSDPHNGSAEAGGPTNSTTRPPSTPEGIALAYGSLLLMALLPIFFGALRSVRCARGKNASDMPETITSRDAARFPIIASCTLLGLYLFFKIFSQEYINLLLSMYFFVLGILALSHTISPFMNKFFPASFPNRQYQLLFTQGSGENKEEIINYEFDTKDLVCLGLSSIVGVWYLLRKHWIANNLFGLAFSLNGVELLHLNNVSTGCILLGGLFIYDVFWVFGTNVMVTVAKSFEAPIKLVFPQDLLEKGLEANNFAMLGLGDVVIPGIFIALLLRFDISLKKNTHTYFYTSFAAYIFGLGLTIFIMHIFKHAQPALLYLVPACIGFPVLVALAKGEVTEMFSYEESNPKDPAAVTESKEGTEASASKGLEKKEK
From the text: as §1, §2, §3

SPPL2a [2] = test system: T4, SPPL2a; test: Endogenous CD74 NTF P8 turnover in non-overexpressing A20 cells (Western blot, In-1 antibody); format: cell-based, mouse
T4 construct: endogenous SPPL2a cleavage of CD74 in a murine B-Cell line; host or cells: A20 mouse B lymphocyte cells
Method: as §1, with “Untagged” for “Expression constructs in pcDNA6 for COOH-terminal FLAG (DYKDDDDK) and strep (WSHPQFEK) tagged SPPL2a, SPPL2b, hSPP and pSPP were generated as previously described. Untagged”
as §2

SPP = test system: SPP; set-up: method as in PMID 15252014, PMID 19337374, PMID 12621027; settings: cited from earlier work
[3] = HEK cells, 24 h, xAβ1-25/K16A by Aβ ELISA, mean ± standard error, read-out: IC50 on FBA/SPPL co-transfected cells
[4] = HEK-293T, 25 μM, ELISA, DMSO = 100%, read-out: inhibition of the SPP/SPPLs
[5] = number in parenthesis in Table 3

O=C(O)c1cc(Oc2ccc([N+](=O)[O-])cc2)cc(Oc2ccc([N+](=O)[O-])cc2)c1 [Comp W, Compound W]
inhibition of xAβ1-25/K16A secretion (in words) (SPPL2b; 25 μM, ELISA): does not show inhibition
inhibition of xAβ1-25/K16A secretion (in words) (pSPP; pSPP): does not show inhibition
inhibition of xAβ1-25/K16A secretion (in words) (SPPL2a [1]; 25 μM, ELISA): does not show inhibition
inhibition of xAβ1-25/K16A secretion (in words) (hSPP; 25 μM, ELISA): does not show inhibition

C[C@H](NC(=O)Cc1cc(F)cc(F)c1)C(=O)N[C@@H]1C(=O)N(C)c2ccccc2-c2ccccc21 [DBZ]
inhibition of FBA cleavage (10 kD ICD) by Western blot (SPPL2b; Fig 3C upper panel): slightly reduce
dose response of P8 fragment stabilization (in words) (SPPL2a [2]; different doses): stabilized the P8 fragment in a dose dependent manner; also recorded: much weaker inhibition
concentration at which effect was first seen (SPPL2a [2]; dose response): 1 µM
inhibition of xAβ1-25/K16A secretion (in words) (hSPP; 25 μM, ELISA): inhibited; also recorded: selectively inhibit hSPP cleavage
inhibition of FBA cleavage by Western blot (hSPP; Fig 3C lower panel): efficiently inhibited
IC50 (hSPP): 948 ± 93 nM

CC(C)C[C@H](NC(=O)[C@H](Cc1ccccc1)C[C@@H](O)[C@H](Cc1ccccc1)NC(=O)OC(C)(C)C)C(=O)N[C@@H](Cc1ccccc1)C(N)=O [L685,458]
inhibition of xAβ1-25/K16A secretion (in words) (SPPL2b; 25 μM, ELISA): largely inhibited
IC50 (SPPL2b; [3]): 876 ± 133 nM
inhibition at 25 µM (SPPL2b; [4]): > 90%
rank order of inhibition (SPPL2b; [5]): 1
inhibition of SPP activity (SPP): inhibit the activity of SPP
IC50 (pSPP): 161 ± 97 nM
inhibition at 25 µM (pSPP; HEK-293T, read-out: inhibition of the SPP/SPPLs): > 90%
inhibition of xAβ1-25/K16A secretion (in words) (pSPP; pSPP): largely inhibited
rank order of inhibition (pSPP; pSPP, number in parenthesis in Table 3): 1
inhibition of xAβ1-25/K16A secretion (in words) (SPPL2a [1]; 25 μM, ELISA): largely inhibited
IC50 (SPPL2a [1]; [3]): 570 ± 90 nM
inhibition at 25 µM (SPPL2a [1]; [4]): > 90%
rank order of inhibition (SPPL2a [1]; [5]): 3
inhibition of xAβ1-25/K16A secretion (in words) (hSPP; 25 μM, ELISA): largely inhibited
IC50 (hSPP): 319 ± 91 nM
inhibition at 25 µM (hSPP; [4]): > 90%
rank order of inhibition (hSPP; [5]): 2

From publication PMC4457840, “Differential Inhibition of Signal Peptide Peptidase Family Members by Established γ-Secretase Inhibitors” (PLoS ONE, 2015)
